# Legend:
# [1] = system: ARDS patients; conditions: cited from earlier work
# [2] = system: experimental animals and ARDS patients; conditions: cited from earlier work
# [3] = at STP; cited from earlier work
# [4] = system: patients with moderately severe Acute Lung Injury (ALI); assay: Safety results, adverse events in the initial 28-day study period; format: in vivo, human; conditions: iNO 5 ppm
# Experimental: (§1) A large-scale, randomized, blinded, placebo-controlled study was carried out in the Intensive Care Units (ICUs) of 46 US hospitals to evaluate the efficacy of low-dose (5 ppm) iNO in 385 patients with moderately severe Acute Lung Injury (ALI). The primary endpoint of this study was number of days alive and off assisted breathing.
# Safety results for the initial 28-day study period have been reported and are summarized briefly here. A total of 630 adverse events (AEs) were reported for patients treated with iNO versus 666 events for those who received placebo. Respiratory system AEs occurred in 51% versus 61% of patients receiving iNO and placebo, respectively, primarily due to higher frequencies of pneumonia, pneumothorax, and apnea in the placebo group.
# [5] = system: patients with moderately severe Acute Lung Injury (ALI); assay: Randomized, blinded, placebo-controlled 28-day study of low-dose (5 ppm) iNO, intent-to-treat analysis; format: in vivo, human
# Experimental: as §1
# (§2) Patients had moderately severe acute lung injury (ALI), defined by a modification of American-European Consensus Conference criteria (PaO2/inspired oxygen concentration [FiO2] ratio of ≦250 mm Hg), due to causes other than severe sepsis. Patients with evidence of non-pulmonary system failure at the time of randomization and sepsis-induced ARDS were excluded. Patients were also excluded if they had sustained hypotension requiring vasopressor support, hemodynamic profiles supporting severe sepsis, severe head injury, severe burns, or evidence of other significant organ system dysfunction at baseline.
# (§3) Patients were randomly assigned to receive either inhaled placebo gas (nitrogen) or 5 ppm of iNO (INO Therapeutics Inc., Port Allen, La.). All patients, healthcare professionals, and investigators were blinded to the assigned treatment. Inhaled NO was administered via INOvent® delivery system (Datex-Ohmeda, Madison, Wis.) that blended treatment gas (nitrogen or NO at 100-ppm balance nitrogen) 1:20 with ventilator gases to achieve a target ppm value in the inspiratory limb of the ventilator.
# (§4) All patients using the iNO delivery system received mechanical ventilatory support. Treatment continued with active or placebo gas until one of the following criteria were met: [1] end of trial (28 days); [2] death; or [3] adequate oxygenation (arterial oxygen saturation by pulse oximetry [SpO2]≧92% or PaO2 of ≧63 mm Hg) without treatment gas at ventilator settings of FiO2≦0.4 and positive end-expiratory pressure (PEEP) of ≦5 cm H2O. Decreases in treatment gas continued in 20% decrements (titrated down by 1 ppm for inhaled NO) every 30 minutes until either the treatment gas concentration reached 0% or oxygenation criteria were not satisfied. If oxygenation criteria were not met, treatment gas concentration was titrated up until they were again achieved. Increments of upward titration were determined by the clinician, based on degree of arterial desaturation.
# [6] = system: patients with moderately severe acute lung injury (ALI) / ARDS survivors; assay: Pulmonary function tests at 6 months post-treatment in ARDS survivors (iNO 5 ppm vs placebo); format: in vivo, human
# Experimental: as §1, §2, §3, §4
# Pulmonary function testing (PFT) at 6 months post-treatment was required in both iNO- and placebo-treated patients as part of the original study design. PFTs included forced expiratory volume in 1 second (FEV1), FEV1% predicted, forced vital capacity (FVC), FVC % predicted, the FEV1/FVC ratio, FEV1/FVC ratio % predicted, forced expiratory flow (FEF) from 25% to 75% of FVC (FEF25-75%), FEF25-75%% predicted, functional residual capacity (FRC), FRC % predicted, total lung capacity (TLC), TLC % predicted, CO diffusion, and CO diffusion % predicted.
# (§5) All between-group differences in PFT results were evaluated using the Wilcoxon rank sum test. Between-group differences in baseline clinical and demographic characteristics were assessed with the Fisher's exact test and the chi-square test for categorical variables and with the Wilcoxon rank sum test for continuous variables. Baseline oxygenation and respiratory/oxygenation parameters in the two groups were compared using Wilcoxon rank sum tests. The areas under the curve (AUCs) of FiO2, PEEP, and PaO2/FiO2 ratio were calculated using the trapezoidal rule. The null hypothesis that the respective AUCs were normally distributed was rejected employing the Shapiro-Wilk test. A Wilcoxon rank sum test was utilized to assess the differences in each median AUC between treatment groups. A p value <0.05 was considered significant.
# A total of 92 of the 302 survivors (30%) were capable of and participated in the 6-month follow-up pulmonary function analysis (iNO, n=51; placebo, n=41). The balance of surviving subjects was lost to follow-up for reasons unknown, and PFT data are not available. […]
# [7] = system: patients with moderately severe acute lung injury (ALI) / ARDS survivors; assay: Respiratory parameters during mechanical ventilation: cumulative exposure (AUC) over study gas administration; format: in vivo, human; conditions: for Duration of exposure: PaO2/FiO2 ratio: during study gas administration / length of mechanical ventilation
# Experimental: Baseline oxygenation measures included PaO2, arterial partial pressure of CO2 (PaCO2), SpO2, FiO2, PEEP, PaO2/FiO2 ratio, […], tidal volume, and mean airway pressure. Respiratory parameters (FiO2, PEEP, and PaO2/FiO2 ratio) were recorded on case report forms every 12 hours during mechanical ventilation.
# as §5
# [8] = experimental animals and ARDS patients
compound,measurement,setting,value
"[N]=O [Inhaled NO, nitric oxide]",H2O2 production by polymorphonuclear leukocytes,[1],significantly decrease
same,IL-6 concentration in BAL fluid,[1],decreased
same,IL-8 concentration in BAL fluid,[1],decreased
same,β2-integrin CD11b/CD18 expression by polymorphonuclear leukocytes,[1],significantly decrease
same,Formation of platelet-leukocyte aggregates,[2]; correlated with NO-dependent inhibition of platelet P-selectin expression,significantly inhibiting
same,Pulmonary concentrations of interleukin (IL)-8,[2]; [8],significantly decreases
same,Pulmonary concentrations of neutrophils,[2]; [8],significantly decreases
same,Solubility in water,[3],about 2 mM
same,Patients with respiratory system AEs,[4],51%
same,Total adverse events (AEs) reported,[4],630 events
same,Partial pressure of arterial oxygen (PaO2),"[5]; initial 24 hours of treatment, p<0.05, resolved by 48 hours",significant increase
same,"Days alive and meeting oxygenation criteria for extubation, benefit versus control",[5]; intent-to-treat,no significant benefit
same,"Mortality, benefit versus control (nitrogen gas)","[5]; intent-to-treat, 5 ppm iNO, 385 patients",no significant benefit
same,"Days alive and off assisted breathing, benefit versus control","[5]; intent-to-treat, primary endpoint",no significant benefit
same,"FRC, % predicted",[6]; mean,93.98 % predicted
same,TLC,[6]; mean,5.54 L
same,"TLC, % predicted",[6]; mean,93.33 % predicted
same,CO diffusion,[6]; mean (SD),18.25 (6.77) mL/min/mm Hg
same,"CO diffusion, % predicted",[6]; mean (SD),71.02 (20.79) % predicted
same,"FEF25/75%, % predicted",[6]; mean (SD),72.50 (27.71) % predicted
same,"FEV1, % predicted",[6]; mean (SD),80.23 (21.21) % predicted
same,FEV1/FVC,[6]; mean (SD),77.45 (15.19) %
same,"FEV1/FVC, % predicted",[6]; mean (SD),96.14 (13.79) % predicted
same,FRC,[6]; mean (SD),3.00 (0.94) L
same,FVC,[6]; mean (SD),3.36 (1.09) L
same,"FVC, % predicted",[6]; mean (SD),83.78 (19.38) % predicted
same,FEV1,"[6]; mean (SD), iNO 5 ppm up to 28 days",2.64 (0.91) L
same,"FEV1, % predicted","[6]; mean (SD), listed as iNO",significantly greater
same,"FEV1/FVC, % predicted","[6]; mean (SD), listed as iNO",significantly greater
same,"FVC, % predicted","[6]; mean (SD), listed as iNO",significantly greater
same,TLC,"[6]; mean, listed as iNO",significantly greater
same,"TLC, % predicted","[6]; mean, listed as iNO",significantly greater
same,Duration of exposure: PaO2/FiO2 ratio,[7]; mean ± SD,262 ± 407
same,Duration of exposure: PaO2/FiO2 ratio,"[7]; mean ± SD, listed as iNO",2637±1729
same,Duration of exposure: FiO2,"[7]; during study gas administration, mean ± SD, N = 51",6.34 ± 4.5
same,"Cumulative exposure to FiO2, PEEP and PaO2/FiO2 ratio, versus placebo",[7]; over the length of mechanical ventilation,less cumulative exposure to all three variables
same,"Duration of exposure, total FiO2","[7]; over the length of mechanical ventilation, mean ± SD",6.3 ± 4.5 days
same,"Aggregate per-patient changes from baseline in supplemental oxygen, PEEP, or PaO2/FiO2 ratio, versus placebo",[7]; through day 28 (FIG. 2a-c),no significant differences between groups
